Here are results for one compound from US10787473B2, “PH responsive fluorescent compound, composition for detecting mitophagy using same, and method for detecting mitophagy within cells” (DOJINDO LABORATORIES, priority 2016, dated 2020).

Data set [1] relates to Parkin-non-expressed HeLa cells. As to the kind of experiment: Confocal laser microscopic detection of mitophagy, CCCP induction. The format is cell-based. The following applies: 100 nmol/L, 10 μM/L CCCP for 24 hours.
Data set [2] has as its system Parkin-expressed HeLa cells. Described as above. In kind it is cell-based. The following applies: 100 nmol/L, 10 μM/L CCCP for 24 hours, 1 μM Lyso Dye. The text has this:
Methods for inducing mitophagy include, in addition to a bulk method such as described in Example 3 above, a selective method mediated with Parkin gene and PINK1 enzyme. The latter involves Parkinson disease and the relationship with a quality control of dysfunctional mitochondria (For example, see Derek Narendra, Atsushi Tanaka, Der-Fen Suen and Richard J. Youle, J. Cell Biol., 2008, 183, 795-803.). To examine the mitochondria-selective detection of autophagy, Parkin-expressed HeLa cells were prepared and the mitophagy was induced by adding Compound 9 and carbonyl cyanide m-chlorophenyl hydrazone (CCCP), a mitochondrial uncoupler and incubating.
HeLa cells were seeded on a μ-slide 8 well (Ibidi) and incubated in a CO2 incubator at 37° C. overnight. Parkin plasmid was introduced using HilyMax (DOJINDO LABORATORIES) into the cells and the cells were incubated overnight. The cultured cells were washed with a plasma-containing medium, to which Compound 9 diluted with Hanks' HEPES buffer (100 nmol/L) was added and incubated for 30 minutes. After washing with the plasma-containing medium, the cells were cultured in a cell culture medium containing 10 μM/L of CCCP for 24 hours. After the occurrence of mitophagy was monitored by the fluorescent microscope, the cultured cells were further incubated with 1 μM Lyso Dye at 37° C. for 30 minutes.

The nature of data set [3]: pH-dependent excitation and fluorescence spectra in buffer solution containing 50% acetonitrile. In kind it is physicochemical. The procedure: To investigate a pH-dependent fluorescent emission of Compound 9, excitation spectra (“Excitation” in FIG. 1) and fluorescence spectra (“Fluorescence” in FIG. 1) were measured at pH 4.0 and 7.4 in buffer solution containing 50% acetonitrile.

A further data set relates to HeLa cells. As to the kind of experiment: Mitophagy detection test using HeLa cells (starvation induction), fluorescent microscope. In kind it is cell-based. The following applies: 100 nmol/L, 30 min, 1 μM Lyso Dye. The method, then:
HeLa cells were seeded on a μ-slide 8 well (Ibidi) and incubated in a CO2 incubator at 37° C. overnight. Compound 9 diluted with Hanks' HEPES buffer (100 nmol/L) was added and incubated for 30 minutes. A starvation induction was carried out by washing cultured cells with Hanks' HEPES buffer twice follow by adding plasma-free Krebs' buffer containing 1 μM glucagon and 7.5 μM pepstatin A and incubating at 37° C. for appropriate period. Then, the cultured cells were observed by a fluorescent microscope. To confirm the uptake of Compound 9 in lysosomes, 1 μM Lyso Dye diluted with Hanks' HEPES buffer was added to the cultured cells and incubated at 37° C. for 30 minutes.

Data set [4] can be described thus: Fluorescent intensity at various pH in buffer solution containing 50% DMSO. In kind it is physicochemical. The method, then: The fluorescent intensities of Compound 9 at various pH were measured in buffer solution containing 50% DMSO. […] Such increase takes place at more acidic side than that of naphthyl imide-type pH-responsive fluorescent compound.
Data set [5] concerns Parkin-expressed HeLa cells. As to the kind of experiment: Flow cytometry (FCM) analysis of mitophagy, CCCP induction. The format is cell-based. The following applies: 100 nmol/L, 10 μM/L CCCP for 24 hours. The procedure: HeLa cells were seeded on a 24 well plate and incubated in a CO2 incubator at 37° C. overnight. Parkin plasmid was introduced using HilyMax (DOJINDO LABORATORIES) into the cells and the cells were further incubated overnight. The cultured cells were washed with a plasma-containing medium, to which Compound 9 diluted with Hanks' HEPES buffer (100 nmol/L) was added and incubated for 30 minutes. After washing with the plasma-containing medium, the cells were cultured in a cell culture medium containing 10 μM/L of CCCP for 24 hours. After washing with PBS, the cells were peeled off by trypsin and EDTA. The cells were collected by centrifuge, dispersed in 0.5 mL of HBSS and analyzed by FCM (BD FACS cant II).

Consider `O=C(CCN1C(=O)c2ccc3c4cccc5c(N6CCN(Cc7ccc(CCl)cc7)CC6)ccc(c6ccc(c2c36)C1=O)c54)NCC[P+](c1ccccc1)(c1ccccc1)c1ccccc1.[Br-]` [Compound 9], for which the fluorescence from compound entry in data set [1] was “faint”. Besides, in data set [2], the “fluorescence from compound and co-staining with lysosome dye” value was “is observed as well as the collateral stain with a lysosome dye (Lyso Dye) is observed”. In addition, in data set [3] (buffer solution containing 50% acetonitrile, pH 4.0 vs 7.4), the “fluorescent intensity at pH 4.0 compared with pH 7.4” value is given as “higher than that at pH 7.4”. Besides, the “shift of maximum fluorescent wavelength to short-wavelength side” value in data set [3] (pH 4.0 vs pH 7.4, buffer solution containing 50% acetonitrile) is reported as 30 nm. Also, the self-aggregation behaviour entry in data set [3] (polar solvent, leads to decrease of fluorescent intensity) is “tends to form a self-aggregate in a polar solvent”. The “co-staining with Lyso Dye (uptake in lysosomes)” value in the data set with HeLa cells is listed as “collateral stain took place”. In data set [4], the “change of fluorescent intensity responding to pH” value is given as “increases from a neutral region to an acidic region”. In addition, the “increase of fluorescent emission on induction of mitophagy using CCCP” value in data set [5] was 1.3 times.
